Measured values taken from article PMC12210739, “A sialic acid-binding protein in Toxoplasma gondii contains a conserved globular domain in apicomplexan parasites” (Parasites & Vectors, 2025).

How the values were obtained:
[1] = test system: TgSABP1-6′SL-PAA interaction; assay: Competitive BLI assay of TgSABP1-6′SL-PAA interaction; assay type: binding, Toxoplasma gondii; details: 5 μM TgSABP1; for Inhibition of binding of recombinant TgSABP1 to 6′SL-PAA: SA 5, 10, 20 mM, lactose 25, 50, 100 mM, oseltamivir phosphate 30, 60 mM
Method: To evaluate small molecule-mediated inhibition of TgSABP1-6′SL-PAA interaction, streptavidin biosensors pre-loaded with 2.4 μM 6′SL-PAA until saturation (threshold ≥ 1.5 nm shift) were subjected to competitive binding assays on an Octet K2 system. Four test compounds were diluted to different concentrations in PBST-BSA, including SA (5, 10, and 20 mM), lactose (25, 50, and 100 mM), oseltamivir phosphate (30 and 60 mM), and eltrombopag (5 and 50 μM). The His-tagged TgSABP1 protein was diluted to 5 μM with different concentrations of compounds and incubated for 15 min at room temperature. The competition binding test included equilibration for 90 s in the compound solution, association for 60–180 s in the pre-treated protein solution, dissociation for 60–90 s in the compound solution, and regeneration [3 × 20 s pulses in HCl (pH 1.0) followed by PBS neutralization]. Data parameters were analyzed by ForteBio Data Analysis software (v 9.0.0.14) using the average reference sensors’ subtraction method and 1:1 binding model. All experiments were repeated in triplicate.

[2] = test system: T. gondii RH-RFP tachyzoites; assay: T. gondii host cell invasion assay in Vero cells; assay type: cell-based; details: Toxoplasma gondii
Method: (§1) The anti-invasive activity of eltrombopag against T. gondii was assessed using a fluorescence-based invasion assay with modifications to the established protocols. Toxoplasma gondii RH strains stably expressing red fluorescence protein were added to 2 × 10^5 Vero cells (multiplicity of infection [MOI] of 1:1) pre-treated with the drug or the equivalent volume of DMSO for 1 h. One hour after the parasites were added, the parasites were removed and the cells were gently washed with PBS three times, then incubated with DMEM containing 2% FBS. After 16 h of cultivation, the cells were fixed with 4% PFA and stained with DAPI (Beyotime, Shanghai, China). The numbers of parasitophorous vacuoles (PVs) and host cells were counted in a total of 20 randomly selected fields under a fluorescence microscope (Leica DM4B, Wetzlar, Germany). Invasion efficiency = (number of PVs/number of DAPI^+ cells) × 100%. Meanwhile, the number of parasites in each vacuole was determined. Seventy vacuoles from each coverslip were counted across at least three biological replicates. Intra-vacuolar proliferation was expressed as the mean number of parasites per PV.

[3] = test system: T. gondii RH-RFP tachyzoites; assay: Intra-vacuolar proliferation (parasites per vacuole); assay type: cell-based, Toxoplasma gondii
Method: as §1

T. gondii = assay: Anti-parasite activity in vivo

For `CCOC(=O)C1=C[C@@H](OC(CC)CC)[C@H](NC(C)=O)[C@@H](N)C1` [oseltamivir phosphate], the “Inhibition of binding of recombinant TgSABP1 to 6′SL-PAA” value (“Inhibition of binding … to 6′SL-PAA” below) [1] was “dose-dependent inhibition” and the “Blocking of binding of recombinant TgSABP1 to 6′SL-PAA” value ([1]; 60 mM compound) was “significantly blocked”.
In the case of `OC[C@H]1O[C@@H](O[C@H]2[C@H](O)[C@@H](O)C(O)O[C@@H]2CO)[C@H](O)[C@@H](O)[C@H]1O` (mixture of isomers) [lactose], the “Inhibition of binding … to 6′SL-PAA” value [1] is reported as “did not”.
For `CC1=NN(c2ccc(C)c(C)c2)C(=O)/C1=N\Nc1cccc(-c2cccc(C(=O)O)c2)c1O` [eltrombopag], the “Blocking of binding of recombinant TgSABP1 to 6′SL-PAA” value ([1]; 50 μM compound) was “significantly blocked”, the inhibition at 10 µM ([2]; 10 μM, vs DMSO control, read-out: Inhibition rate of host cell invasion) was 47.8% and the inhibition at 20 µM ([2]; 20 μM, vs DMSO control, read-out: Inhibition rate of host cell invasion) was 57.7%. The IC50 ([2]; calculated, read-out: IC50 for anti-invasion of T. gondii) was 11.6 µM, the Intracellular parasite replication ([3]; 10 μM) was “without affecting intracellular parasite replication” and the “Replication of invaded parasites” value ([3]; 20 μM, vs DMSO control) was “significantly impaired”. For the same compound, the “Anti-parasite activity in vivo” value (T. gondii) was “did not show any anti-parasite activity in vivo”.
For `CC(=O)N[C@H]1[C@H]([C@H](O)[C@H](O)CO)OC(O)(C(=O)O)C[C@@H]1O` (some centres unmarked) [SA, sialic acid], the “Inhibition of binding … to 6′SL-PAA” value [1] was “exhibited the inhibition on the binding of recombinant TgSABP1 to 6′SL-PAA in a concentration-dependent manner”.
